Earlier results, collected in patent US20250144314A1, “VITAMIN K1 INJECTION DEVICE KIT” (ORBICULAR PHARMACEUTICAL TECHNOLOGIES PRIVATE LIMITED, priority 2022, published 2025).

Settings: estimate

CC1=C(C/C=C(\C)CCC[C@H](C)CCC[C@H](C)CCCC(C)C)C(=O)c2ccccc2C1=O [vitamin K, Phytonadione]
absorbed vitamin K excreted from the body: over 60%
